Measurements published in publication PMC9059125 (Journal of Medicinal Chemistry, 2022).

Key:
[1] = simulated gi fluid, pH 1.2
[2] = tested on: OTR; conditions: cited from earlier work
[3] = simulated gi fluid, pH 6.8
[4] = in vitro; conditions: pig, simulated gi fluid, pH 1.2, t1/2 SGF
[5] = in vitro; conditions: pig, simulated gi fluid, pH 6.8
[6] = molecular target: T1, human oxytocin receptor (OTR) (Homo sapiens, UniProt P30559); conditions: cited from earlier work
T1 construct: NIMH PDSP (data provider)
T1 sequence (P30559 1-389): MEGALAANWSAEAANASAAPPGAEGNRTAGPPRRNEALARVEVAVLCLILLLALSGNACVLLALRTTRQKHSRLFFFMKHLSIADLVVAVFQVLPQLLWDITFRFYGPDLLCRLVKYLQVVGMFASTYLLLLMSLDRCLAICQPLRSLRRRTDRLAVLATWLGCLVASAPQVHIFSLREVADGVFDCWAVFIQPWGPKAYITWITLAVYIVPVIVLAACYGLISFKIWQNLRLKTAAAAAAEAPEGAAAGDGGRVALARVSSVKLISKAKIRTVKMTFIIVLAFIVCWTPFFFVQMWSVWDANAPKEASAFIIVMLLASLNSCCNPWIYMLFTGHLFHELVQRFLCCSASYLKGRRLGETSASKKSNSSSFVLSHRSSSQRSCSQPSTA

Row | SMILES | t1/2 SGF [1] [h] | agonistic activity at the OTR (in words) [2] | t1/2 SIF [3] [h] | half-life [4] [h] | half-life [5] [h] | activity at the OTR (in words) [6]
1 | CC[C@H](C)[C@@H]1NC(=O)[C@@H]2CCCN2C(=O)[C@H](Cc2c[nH]c3ccccc23)NC(=O)[C@H](CO)NC(=O)[C@@H]2CSSC[C@@H]3NC(=O)[C@H]([C@@H](C)O)NC(=O)[C@H](CCC(=O)O)NC(=O)CNC(=O)[C@@H]4CSSC[C@H](NC(=O)CNC(=O)[C@H](CCC(N)=O)NC(=O)[C@H]([C@@H](C)O)NC(=O)[C@H](Cc5ccc(O)cc5)NC(=O)[C@H](CSSC[C@H](NC1=O)C(=O)N[C@@H](CCCCN)C(=O)N[C@@H](CCCNC(=N)N)C(=O)N[C@@H](CC(N)=O)C(=O)NCC(=O)N[C@@H](CC(C)C)C(=O)N1CCC[C@H]1C(=O)N[C@@H](C(C)C)C(=O)N4)NC(=O)[C@H]([C@@H](C)O)NC(=O)CNC(=O)[C@H](CC(C)C)NC(=O)[C@H]([C@@H](C)O)NC3=O)C(=O)N[C@@H]([C@@H](C)O)C(=O)N2 [Kalata B7] | >24 | weak inherent agonistic activity | >24 | – | – | –
2 | CC[C@H](C)[C@@H]1NC(=O)[C@@H]2CCCN2C(=O)[C@@H]2CCCN2C(=O)[C@H]([C@@H](C)CC)NC(=O)[C@H](CO)NC(=O)[C@H](CCCCN)NC(=O)[C@H]([C@@H](C)O)NC(=O)[C@@H]2CSSC[C@H](NC1=O)C(=O)N[C@@H](Cc1ccccc1)C(=O)N1CCC[C@H]1C(=O)N[C@@H](CC(=O)O)C(=O)NCC(=O)N[C@@H](CCCNC(=N)N)C(=O)N2 [SFTI-1] | – | – | – | > 24 | 16.3 ± 2.7 | –
3 | CC[C@@H](C)[C@H]1NC(=O)[C@@H](CCC(N)=O)NC(=O)[C@@H](CC(N)=O)NC(=O)[C@H](NC(=O)[C@H]2CCCN2C(=O)[C@@H](CC(C)C)NC(=O)CN)CSSC[C@H](C(N)=O)NC(=O)[C@@H](Cc2ccc(O)cc2)NC1=O [all-D-retroinverse-OT] | – | – | – | – | > 24 | inactive
